In general, IC50 refers to the concentration that gives 50% inhibition. A high value points to weaker potency in that assay.

The assay deals with PI3K delta (Homo sapiens, UniProt O00329). Nature of the assay: Luciferase-coupled chemiluminescence kinase assay (ATP consumption, KinaseGlo). It counts as biochemical. Summed up: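 ATP consumption measured by KinaseGlo luciferase chemiluminescence after a 2 h reaction at ambient temperature, with ATP at or below the kinase KM. Ten inhibitor concentrations per curve; IC50 from four-parameter nonlinear regression.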
PI3K delta, sequence (O00329 whole entry): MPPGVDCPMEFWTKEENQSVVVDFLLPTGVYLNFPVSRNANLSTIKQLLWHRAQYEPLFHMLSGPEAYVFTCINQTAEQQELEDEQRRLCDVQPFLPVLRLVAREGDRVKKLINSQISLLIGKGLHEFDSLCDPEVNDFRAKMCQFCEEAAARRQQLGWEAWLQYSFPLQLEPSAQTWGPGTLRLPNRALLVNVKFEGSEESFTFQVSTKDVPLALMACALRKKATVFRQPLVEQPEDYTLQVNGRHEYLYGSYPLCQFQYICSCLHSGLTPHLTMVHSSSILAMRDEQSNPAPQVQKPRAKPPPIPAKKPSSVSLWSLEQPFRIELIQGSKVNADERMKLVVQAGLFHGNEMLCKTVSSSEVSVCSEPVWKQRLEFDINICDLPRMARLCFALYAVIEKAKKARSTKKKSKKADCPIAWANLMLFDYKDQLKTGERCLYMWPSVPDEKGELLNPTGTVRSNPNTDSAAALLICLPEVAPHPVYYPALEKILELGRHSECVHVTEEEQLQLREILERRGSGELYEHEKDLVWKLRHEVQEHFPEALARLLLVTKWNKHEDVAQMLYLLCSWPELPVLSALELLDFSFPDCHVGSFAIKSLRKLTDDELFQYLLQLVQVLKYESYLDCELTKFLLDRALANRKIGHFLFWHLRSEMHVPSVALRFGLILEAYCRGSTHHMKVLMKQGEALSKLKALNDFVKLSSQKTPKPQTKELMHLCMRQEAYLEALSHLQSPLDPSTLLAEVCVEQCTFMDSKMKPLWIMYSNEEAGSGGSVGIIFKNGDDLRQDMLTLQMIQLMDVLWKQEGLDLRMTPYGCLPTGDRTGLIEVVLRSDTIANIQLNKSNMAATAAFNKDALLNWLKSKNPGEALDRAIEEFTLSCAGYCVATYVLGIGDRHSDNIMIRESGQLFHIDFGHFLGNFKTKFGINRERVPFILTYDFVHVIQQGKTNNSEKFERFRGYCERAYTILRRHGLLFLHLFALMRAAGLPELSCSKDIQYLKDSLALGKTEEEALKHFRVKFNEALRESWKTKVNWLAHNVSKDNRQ
PI3K delta, sequence (P27986 whole entry partner): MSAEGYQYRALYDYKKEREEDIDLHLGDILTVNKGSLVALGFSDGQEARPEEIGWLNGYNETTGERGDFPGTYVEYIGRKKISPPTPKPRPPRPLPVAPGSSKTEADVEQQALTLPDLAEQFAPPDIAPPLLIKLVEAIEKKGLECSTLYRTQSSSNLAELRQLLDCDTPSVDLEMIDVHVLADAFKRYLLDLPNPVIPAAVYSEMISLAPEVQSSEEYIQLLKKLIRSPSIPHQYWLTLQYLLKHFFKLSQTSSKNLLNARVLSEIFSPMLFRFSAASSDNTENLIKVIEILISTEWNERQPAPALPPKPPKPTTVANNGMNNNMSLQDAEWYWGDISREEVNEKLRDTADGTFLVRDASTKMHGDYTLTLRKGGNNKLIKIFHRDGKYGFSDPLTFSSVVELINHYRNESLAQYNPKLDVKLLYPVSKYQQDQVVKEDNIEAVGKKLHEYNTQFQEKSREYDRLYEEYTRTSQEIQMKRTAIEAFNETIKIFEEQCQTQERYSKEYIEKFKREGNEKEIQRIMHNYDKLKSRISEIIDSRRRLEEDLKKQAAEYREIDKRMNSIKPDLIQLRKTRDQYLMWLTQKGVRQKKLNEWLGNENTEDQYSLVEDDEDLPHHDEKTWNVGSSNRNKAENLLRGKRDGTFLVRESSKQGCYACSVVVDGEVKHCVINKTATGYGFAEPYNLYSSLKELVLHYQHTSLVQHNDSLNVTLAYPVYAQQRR
(In general: Kinase-Glo measures the ATP left after a reaction by luminescence.)
`CCn1c(C(=O)NC2CCC2)nc2c(N3CCC(n4c(=O)[nH]c5ccccc54)CC3)ncnc21` [Compound 194, N-cyclobutyl-9-ethyl-6-[4-(2-oxo-2,3-dihydro-1H-benzimidazol-1-yl)piperidin-1-yl]-9H-purine-8-carboxamide]: the IC50 was less than 50 nM. Next, `CCn1c(C(=O)NCCCCO)nc2c(N3CCC(n4c(=O)[nH]c5ccccc54)CC3)ncnc21` [Compound 195, 9-ethyl-N-(4-hydroxybutyl)-6-[4-(2-oxo-2,3-dihydro-1H-benzimidazol-1-yl)piperidin-1-yl]-9H-purine-8-carboxamide]: less than 50 nM; `CCn1c(C(=O)NC(C)C)nc2c(N3CCC(n4c(=O)[nH]c5ccccc54)CC3)ncnc21` [Compound 196, 9-ethyl-N-(1-methylethyl)-6-[4-(2-oxo-2,3-dihydro-1H-benzimidazol-1-yl)piperidin-1-yl]-9H-purine-8-carboxamide]: less than 50 nM; `CCn1c(C(=O)NCC(C)(C)O)nc2c(N3CCC(n4c(=O)[nH]c5ccccc54)CC3)ncnc21` [Compound 197, 9-ethyl-N-(2-hydroxy-2-methylpropyl)-6-[4-(2-oxo-2,3-dihydro-1H-benzimidazol-1-yl)piperidin-1-yl]-9H-purine-8-carboxamide]: less than 50 nM. For `CCn1c(C(=O)NCCC(C)C)nc2c(N3CCC(n4c(=O)[nH]c5ccccc54)CC3)ncnc21` [Compound 198, 9-ethyl-N-(3-methylbutyl)-6-[4-(2-oxo-2,3-dihydro-1H-benzimidazol-1-yl)piperidin-1-yl]-9H-purine-8-carboxamide], the IC50 lay in the range of 50 to 250 nM. Next, `CC(C)Cc1nnc(-c2nc3c(N4CCC(n5c(=O)[nH]c6ccccc65)CC4)ncnc3n2C)o1` [Compound 204, 1-(1-{9-methyl-8-[5-(2-methylpropyl)-1,3,4-oxadiazol-2-yl]-9H-purin-6-yl}piperidin-4-yl)-1,3-dihydro-2H-benzimidazol-2-one]: less than 50 nM; `Cn1c(C(=O)NCC2CC2)nc2c(N3CCC(n4c(=O)[nH]c5cc(F)ccc54)CC3)ncnc21` [Compound 205, N-(cyclopropylmethyl)-6-[4-(5-fluoro-2-oxo-2,3-dihydro-1H-benzimidazol-1-yl)piperidin-1-yl]-9-methyl-9H-purine-8-carboxamide]: 50 to 250 nM; `Cc1ccc2[nH]c(=O)n(C3CCN(c4ncnc5c4nc(C(=O)NCC4CC4)n5C)CC3)c2c1` [Compound 206, N-(cyclopropylmethyl)-9-methyl-6-[4-(6-methyl-2-oxo-2,3-dihydro-1H-benzimidazol-1-yl)piperidin-1-yl]-9H-purine-8-carboxamide]: 250 to 500 nM. Next, `CCn1c(C(=O)NCc2nnc(C)o2)nc2c(N3CCC4(CC3)C(=O)Nc3ccccc34)ncnc21` [Compound 207, 9-ethyl-N-[(5-methyl-1,3,4-oxadiazol-2-yl)methyl]-6-(2-oxo-1,2-dihydro-1′H-spiro[indole-3,4′-piperidin]-1′-yl)-9H-purine-8-carboxamide]: 250 to 500 nM; `CCn1c(C(=O)NC2COC2)nc2c(N3CCC(n4c(=O)[nH]c5ccccc54)CC3)ncnc21` [Compound 208, 9-ethyl-N-oxetan-3-yl-6-[4-(2-oxo-2,3-dihydro-1H-benzimidazol-1-yl)piperidin-1-yl]-9H-purine-8-carboxamide]: less than 50 nM. Consider `CCn1c(-c2nnc(C(C)C)o2)nc2c(N3CCC4(CC3)C(=O)Nc3ccccc34)ncnc21` [Compound 209, 1′-{9-ethyl-8-[5-(1-methylethyl)-1,3,4-oxadiazol-2-yl]-9H-purin-6-yl}spiro[indole-3,4′-piperidin]-2(1H)-one], for which the IC50 is less than 50 nM. As for `CCn1c(-c2nnc(C3CC3)o2)nc2c(N3CCC4(CC3)C(=O)Nc3ccccc34)ncnc21` [Compound 210, 1′-[8-(5-cyclopropyl-1,3,4-oxadiazol-2-yl)-9-ethyl-9H-purin-6-yl]spiro[indole-3,4′-piperidin]-2(1H)-one], the IC50 was less than 50 nM.

(Values after patent US20140058103A1, “Inhibitors of PI3K-Delta and Methods of Their Use and Manufacture” (Exelixis, Inc., priority 2010, published 2014).)
